The values that follow come from patent publication US20220369638A1, “USE OF THE SUCCINATE DEHYDROGENASE INHIBITOR PYDIFLUMETOFEN FOR CONTROLLING CLAVICEPS PURPUREA AND REDUCING SCLEROTIA IN CEREALS” (Bayer Aktiengesellschaft, priority 2019, published 2022).

This assay deals with Claviceps purpurea. Briefly: Field trials 2018 in Canada: foliar application at early flowering, sclerotia (ergot bodies) counted in harvested wheat grain. It counts as in vivo. The following applies: 75 grams/ha Pydiflumetofen, spring wheat (AC Goodeve) or durum wheat (AC Strongfield), crop per trial not stated. Here is the method:
Pydiflumetofen as well as market standards were applied according to table 2 between Jul. 6-9, 2018 between BBCH stage 61-63 (early flowering). Assessment of sclerotia was conducted in fall 2018 on harvested grain samples. […] A mixture of Pydiflumetofen and Propiconazole is also available as a suspension concentrate 275 SC formulation (275 grams of total active ingredients) with 150 grams of Pydiflumetofen and 125 grams of Propiconazole per litre under the name […] be tested for reduction of sclerotia in cereals, in particular in spring wheat, winter wheat, durum, hybrid spring wheat, hybrid winter wheat, winter rye, spring rye, hybrid winter rye, hybrid spring rye, and […] plants.

Molecules are shown by their SMILES.

`CON(C(=O)c1cn(C)nc1C(F)F)C(C)Cc1c(Cl)cc(Cl)cc1Cl` (stereo not drawn) [Pydiflumetofen, 3-(difluoromethyl)-N-methoxy-1-methyl-N-[1-methyl-2-(2,4,6-trichlorophenyl)ethyl]-1H-pyrazole-4-carboxamide]: the “Trial No 1 number of Ergot bodies per kg seed” value (applied BBCH 61-63, untreated 0.5) is 0.5 per kg seed. The “Trial No 3 number of Ergot bodies per kg seed” value (applied BBCH 61-63, untreated 1.3) was 0 per kg seed. In addition, under “applied BBCH 61-63, untreated 2.3”, the “Trial No 2 number of Ergot bodies per kg seed” value is given as 0.3 per kg seed.
